From patent US7205306B2, “Substituted pyrazinones, pyridines and pyrimidines as corticotropin releasing factor ligands” (Bristol-Myers Squibb Pharma Company, priority 2001, dated 2007) come the findings set out here.

A word on the melting point: it is the temperature of the solid-liquid transition. For `CCC(COC)Nc1nc(C)nc(N2CCc3cc(OC)cc(Cl)c32)c1C=O` (stereo not shown) [Example 76, 4-(7-chloro-5-methoxy-2,3-dihydro-1H-indol-1-yl)-5-formyl-6-[1-(1-methoxymethyl)propylamino]-2-methylpyrimidine], the melting point fell in the range of 150 to 153 °C.
As for `CCC(C)Nc1cc(N2CCc3cc(OC)cc(Cl)c32)nc(C)n1` (stereo not shown) [Example 310, 4-(7-chloro-5-methoxy-2,3-dihydro-1H-indol-1-yl)-6-(1-methylpropylamino)-2-methylpyrimidine], the melting point lay within 102 to 105 °C.
For `CCC(CC)n1cc(Cl)nc(N2CCc3cc(Cl)cc(Cl)c32)c1=O` [Example 401, 5-Chloro-3-(5,7-dichloro-2,3-dihydro-1H-indol-1-yl)-1-(1-ethylpropyl)-2(1H)-pyrazinone] the value was 168 to 170 °C; for `CCC(CCOC)n1cc(Cl)nc(N2CCc3cc(Cl)cc(Cl)c32)c1=O` (stereo not shown) [Example 410, 5-Chloro-3-(5,7-dichloro-2,3-dihydro-1H-indol-1-yl)-1-(1-ethyl-3-methoxypropyl)-2(1H)-pyrazinone], 95 to 97 °C.
In the case of `CCC(COC)n1cc(Cl)nc(N2CCc3cc(OC)cc(Cl)c32)c1=O` (stereo not shown) [Example 413, 5-Chloro-3-(7-chloro-5-methoxy-2,3-dihydro-1H-indol-1-yl)-1-[1-(methoxymethyl)propyl]-2(1H)-pyrazinone], the melting point was in the range of 131 to 133 °C.
`CCC(CC)n1cc(C)nc(N2CCc3cc(Cl)cc(Cl)c32)c1=O` [Example 451, 3-(5,7-Dichloro-2,3-dihydro-1H-indol-1-yl)-1-(1-ethylpropyl)-5-methyl-2(1H)-pyrazinone] registered a melting point of 137 to 139 °C.
Take `CCC(CC)n1cc(Br)nc(N2CCc3cc(Cl)cc(Cl)c32)c1=O` [Example 507, 5-Bromo-3-(5,7-dichloro-2,3-dihydro-1H-indol-1-yl)-1-(1-ethylpropyl)-2(1H)-pyrazinone]: the melting point lay within 158 to 160 °C.
Molecule `CC[C@H](C1CC1)n1cc(Cl)nc(N2CCc3cc(Cl)cc(Cl)c32)c1=O` [Example 511, 5-Chloro-1-[(1R)-1-cyclopropylpropyl]-3-(5,7-dichloro-2,3-dihydro-1H-indol-1-yl)-2(1H)-pyrazinone] showed a melting point of 166 to 168 °C.
The result for `CC[C@H](C1CC1)n1cc(Cl)nc(N2CCc3cc(Br)cc(Br)c32)c1=O` [Example 512, 5-Chloro-1-[(1R)-1-cyclopropylpropyl]-3-(5,7-dibromo-2,3-dihydro-1H-indol-1-yl)-2(1H)-pyrazinone] reads 164 to 165 °C; that for `CC[C@H](C1CC1)n1cc(Cl)nc(N2CCc3cc(OC)c(F)c(Cl)c32)c1=O` [Example 513, 5-Chloro-3-(7-chloro-6-fluoro-5-methoxy-2,3-dihydro-1H-indol-1-yl)-1-[(1R)-1-cyclopropylpropyl]-2(1H)-pyrazinone], 128 to 130 °C; that for `CC[C@@H](C1CC1)n1cc(Cl)nc(N2CCc3cc(Cl)cc(Cl)c32)c1=O` [Example 517, 5-Chloro-1-[(1S)-1-cyclopropylpropyl]-3-(5,7-dichloro-2,3-dihydro-1H-indol-1-yl)-2(1H)-pyrazinone], 157 to 159 °C.
The result for `CC[C@@H](C1CC1)n1cc(Cl)nc(N2CCc3cc(Br)cc(Br)c32)c1=O` [Example 518, 5-Chloro-1-[(1S)-1-cyclopropylpropyl]-3-(5,7-dibromo-2,3-dihydro-1H-indol-1-yl)-2(1H)-pyrazinone] reads 165 °C; that for `CC[C@@H](C1CC1)n1cc(Cl)nc(N2CCc3cc(OC)c(F)c(Cl)c32)c1=O` [Example 519, 5-Chloro-3-(7-chloro-6-fluoro-5-methoxy-2,3-dihydro-1H-indol-1-yl)-1-[(1S)-1-cyclopropylpropyl]-2(1H)-pyrazinone], 127 to 129 °C.
The result for `COC[C@@H](C)n1cc(Cl)nc(N2CCc3cc(Cl)cc(Cl)c32)c1=O` [Example 520, 5-Chloro-3-(5,7-dichloro-2,3-dihydro-1H-indol-1-yl)-1-[(1R)-2-methoxy-1-methylethyl]-2(1H)-pyrazinone] reads 93 to 95 °C; that for `COC[C@@H](C)n1cc(Cl)nc(N2CCc3cc(Br)cc(Br)c32)c1=O` [Example 521, 5-Chloro-3-(5,7-dibromo-2,3-dihydro-1H-indol-1-yl)-1-[(1R)-2-methoxy-1-methylethyl]-2(1H)-pyrazinone], 119 to 120 °C.
`CCC(COC)n1cc(Cl)nc(N2CCc3cc(OC)c(F)c(Cl)c32)c1=O` (stereo not shown) [Example 522, 5-Chloro-3-(7-chloro-6-fluoro-5-methoxy-2,3-dihydro-1H-indol-1-yl)-1-[1-(methoxymethyl)propyl]-2(1H)-pyrazinone]: the melting point was in the range of 140 to 142 °C.
For `CC[C@H](COC)n1cc(Cl)nc(N2CCc3cc(Cl)cc(Cl)c32)c1=O` [Example 524, 5-Chloro-3-(5,7-dichloro-2,3-dihydro-1H-indol-1-yl)-1-[(1R)-1-(methoxymethyl)propyl]-2(1H)-pyrazinone] the value was 143 to 146 °C; for `CC[C@H](COC)n1cc(Br)nc(N2CCc3cc(Cl)cc(Cl)c32)c1=O` [Example 527, 5-Bromo-3-(5,7-dichloro-2,3-dihydro-1H-indol-1-yl)-1-[(1R)-1-(methoxymethyl)propyl]-2(1H)-pyrazinone], 150 to 152 °C.
For `CC[C@H](COC)n1cc(Br)nc(N2CCc3cc(OC)c(F)c(Cl)c32)c1=O` [Example 528, 5-Bromo-3-(7-chloro-6-fluoro-5-methoxy-2,3-dihydro-1H-indol-1-yl)-1-[(1R)-1-(methoxymethyl)propyl]-2(1H)-pyrazinone] the value was 150 to 152 °C; for `CC[C@@H](COC)n1cc(Cl)nc(N2CCc3cc(Cl)cc(Cl)c32)c1=O` [Example 530, 5-Chloro-3-(5,7-dichloro-2,3-dihydro-1H-indol-1-yl)-1-[(1S)-1-(methoxymethyl)propyl]-2(1H)-pyrazinone], 143 to 146 °C.
`CC[C@@H](COC)n1cc(Br)nc(N2CCc3cc(Cl)cc(Cl)c32)c1=O` [Example 531, 5-Bromo-3-(5,7-dichloro-2,3-dihydro-1H-indol-1-yl)-1-[(1S)-1-(methoxymethyl)propyl]-2(1H)-pyrazinone] registered a melting point of 152 to 154 °C.
The result for `CSCCn1cc(Cl)nc(N2CCc3cc(Cl)cc(Cl)c32)c1=O` [Example 535, 5-Chloro-3-(5,7-dichloro-2,3-dihydro-1H-indol-1-yl)-1-[2-(methylthio)ethyl]-2(1H)-pyrazinone] reads 127 to 128 °C; that for `CCC(C)n1cc(Cl)nc(N2CCc3cc(Br)cc(Cl)c32)c1=O` (stereo not shown) [Example 538, 3-(5-Bromo-7-chloro-2,3-dihydro-1H-indol-1-yl)-5-chloro-1-methylpropyl-2(1H)-pyrazinone], 150 °C.
For `CCc1cn(C(CC)CC)c(=O)c(N2CCc3cc(Cl)cc(Cl)c32)n1` [Example 539, 3-(5,7-Dichloro-2,3-dihydro-1H-indol-1-yl)-5-ethyl-1-(1-ethylpropyl)-2(1H)-pyrazinone] the value was 136 to 137 °C; for `CCC(CC)n1cc(Cl)nc(N2CCc3cc(Br)cc(Cl)c32)c1=O` [Example 540, 3-(5-Bromo-7-chloro-2,3-dihydro-1H-indol-1-yl)-5-chloro-1-(1-ethylpropyl)-2(1H)-pyrazinone], 156 to 157 °C.
For `CCC(CC)n1cc(C#N)nc(N2CCc3cc(Cl)cc(Cl)c32)c1=O` [Example 541, 6-(5,7-Dichloro-2,3-dihydro-1H-indol-1-yl)-4-(1-ethylpropyl)-4,5-dihydro-5-oxo-2-pyrazinecarbonitrile] the value was 197 to 199 °C; for `CC[C@H](C1CC1)n1cc(Cl)nc(N2CCc3cc(Br)cc(Cl)c32)c1=O` [Example 542, 3-(5-Bromo-7-chloro-2,3-dihydro-1H-indol-1-yl)-5-chloro-1-[(1R)-1-cyclopropylpropyl]-2(1H)-pyrazinone], 154 to 156 °C; for `CC[C@@H](C1CC1)n1cc(Cl)nc(N2CCc3cc(Br)cc(Cl)c32)c1=O` [Example 543, 3-(5-Bromo-7-chloro-2,3-dihydro-1H-indol-1-yl)-5-chloro-1-[(1S)-1-cyclopropylpropyl]-2(1H)-pyrazinone], 126 to 127 °C.
`CC[C@H](COC)n1cc(Cl)nc(N2CCc3cc(OC)cc(C#N)c32)c1=O` [Example 546, 1-[6-Chloro-4-[(1R)-1-(methoxymethyl)propyl]-3,4-dihydro-3-oxopyrazinyl]-5-methoxy-2,3-dihydro-1H-indole-7-carbonitrile] displayed a melting point of 141 to 142 °C.
The result for `CC[C@H](COC)n1cc(Br)nc(N2CCc3cc(Br)cc(Cl)c32)c1=O` [Example 547, 5-Bromo-3-(5-bromo-7-chloro-2,3-dihydro-1H-indol-1-yl)-1-[(1R)-1-(methoxymethyl)propyl]-2(1H)-pyrazinone] reads 118 °C.
The result for `CC[C@@H](COC)n1cc(Cl)nc(N2CCc3cc(Br)cc(Cl)c32)c1=O` [Example 548, 3-(5-Bromo-7-chloro-2,3-dihydro-1H-indol-1-yl)-5-chloro-1-[(1S)-1-(methoxymethyl)propyl]-2(1H)-pyrazinone] reads 121 to 122 °C.
The result for `CCC(CC)n1cc(Cl)nc(N2CCCc3cc(OC)cc(Br)c32)c1=O` [Example 550, 3-(8-Bromo-6-methoxy-1,2,3,4-tetrahydroquinoline)-5-chloro-1-(1-ethylpropyl)-2(1H)-pyrazinone] reads 125 to 126 °C; that for `CC[C@H](C1CC1)n1cc(Cl)nc(N2CCCc3cc(OC)cc(Br)c32)c1=O` [Example 551, 3-(8-Bromo-6-methoxy-1,2,3,4-tetrahydroquinoline)-5-chloro-1-[(1R)-1-cyclopropylpropyl]-2(1H)-pyrazinone], 127 to 129 °C; that for `CC[C@@H](C1CC1)n1cc(Cl)nc(N2CCCc3cc(OC)cc(Br)c32)c1=O` [Example 552, 3-(8-Bromo-6-methoxy-1,2,3,4-tetrahydroquinoline)-5-chloro-1-[(1S)-1-cyclopropylpropyl]-2(1H)-pyrazinone], 118 to 119 °C.
